Source: patent US12440475B2, “Hodgkin lymphoma therapy” (priority 2016, dated 2025)

Columns and labels:
L1236-R100 = test: Viable cell count and IC50, bendamustine-resistant cell line; format: cell-based, human
Procedure: • (a) Five Hodgkin lymphoma cell lines (KMH2, HDML2, L540, L1236 and L426) were cultured separately in the presence of bendamustine, vorinostat and EDO-S101 dissolved in DMSO at 37° C. L1236-derived Hodgkin lymphoma cell lines were selected as they have an acquired stable resistance to bendamustine (R100) or an ability to display continuous growth upon extended exposure to sub-lethal concentrations of bendamustine (R25, R50 and R75). A detailed description of the L1236-R Hodgkin lymphoma cell lines is disclosed in De Filippi et al, ASH 2015, Abstract. #2479. In these tests, the L1236-100R bendamustine resistant strain was used. […] Control cells were cultured in the same final concentration of DMSO. The number of viable cells was assessed at 24, 48 and 72 hours through a Countess™ automated cell counter (Invitrogen), each experiment being repeated three times and the results given being the mean of the three results±SD.

L540 = test: Apoptosis by annexin V-FITC and Hoechst double staining, L540; format: cell-based, human; conditions: 5 μM, 24 h and 48 h
Procedure: This assay was performed on 7 cell lines (HDLM2 was excluded due to the low number of available cells) at 24 h and 48 h following EDO-S101 treatment (5 μM, DMSO). Control cells were cultured in the same final concentration of DMSO. Only viable cells (using Hoechst staining) were focused on, and all necrotic cells were excluded. Apoptosis was determined using annexin V-FITC and Hoechst (33342) double staining according to the manufacturer's instructions (BD Biosciences). Cell-cycle fractions were determined by Hoechst nuclear staining. Briefly, cells were harvested, washed in PBS, incubated with annexin V-FITC and Hoechst solution for 30 minutes at room temperature. Data were collected using a FACSCalibur flow cytometer (BD Biosciences) and analyzed with FlowJo Version 7.5.5 obtainable from FlowJo, LLC. Results represent the mean value of 3 independent experiments.

[1] = Weight of xenografted NSG mice after EDO-S101; format: in vivo
Procedure: Two independent experiments were performed to investigate the dose-effect of EDO-S101 in NSG mice eight weeks after xenografting with L428 cells as in Example 8. The aim of the protocol shown in FIG. 8B was to evaluate the effect of sequential treatment with a moderate dose of 60 mg/kg given at an interval of three weeks.
This weight loss was also observed in mice treated with the vehicle. In contrast, the weight of the control mice receiving only freshly prepared phosphate buffered saline (PBS) buffered to 7.3-7.4 increased up to 11 weeks and then started to decrease.
The toxicity of the dose of 80 mg/kg compared to 60 mg/kg was investigated, as compared to the control groups vehicle and PBS.

R100 = test: ATM/ATR transcripts, R100; format: cell-based, human; conditions: bendamustine resistant R100; EDO-S101 alone

For `Cn1c(CCCCCCC(=O)NO)nc2cc(N(CCCl)CCCl)ccc21` [EDO-S101], the viable cells (L1236-R100; R100, 48 hours after treatment with 50 μM) was “no viable cells”, the “anti-proliferative activity compared with vorinostat” value (L1236-R100; bendamustine-resistant cell line R100) was “greater than that of vorinostat” and the sensitivity for apoptosis (L540) was “higher sensitivity”. The “weight loss, 60 mg/kg versus 80 mg/kg” value ([1]; single dose 60 mg/kg or 80 mg/kg) was “no significant difference”, the “weight of the mice or the different organs” value ([1]; treated versus untreated mice) was “No significant difference” and the weight of mice ([1]; two doses of 60 mg/kg three weeks apart) was “weight loss following each administration which was regained after several weeks”. The ATM/ATR transcripts (R100) was “correct the constitutive ATM/ATR unbalance by upregulating ATR and downregulating ATM transcripts”.
